# Source: PubChem BioAssay AID1963424 (Molecular Pharmacology Branch, DTP, NCI, 2024)
# Values joined by “and” are separate entries in the source; they are usually repeats but may differ in a detail not shown here. Equal values may be shown once.
# System: 327498-153-R-J2-PDC complex spheroid growth, % test/control
# Assay: Anticancer human tumor 327498-153-R-J2-PDC patient-derived uterine carcinosarcoma cell line growth inhibition [Asc]
# Details: for viability, T/C: stronger effect = lower value
# Summary of the method: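 Spheroid model: tumor line + HUVEC + hMSC. Single agents and combinations; top conc. at/near clinical Cmax (10 microM if undetermined), half-log dilutions. DMSO stocks at 800-fold test concentration.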
# 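Note: spheroids exposed to compound for 7 days after 3 days of growth.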
# 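Throughout, for viability, T/C: 100% = DMSO vehicle control wells.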
smiles,measurement,setting,value
COc1c(OCCCN2CCOCC2)ccc2c3n(c(=NC(=O)c4cnc(N)nc4)nc12)CCN3 + Cc1c(S(C)(=O)=O)c(-c2cc(F)cc(N3CCN(c4ccc(NS(=O)(=O)c5ccc(NC(CCN6CCC(C(=O)OCCCP(=O)(O)O)CC6)CSc6ccccc6)c(S(=O)(=O)C(F)(F)F)c5)cc4)CC3)c2)c(-c2ccc(Cl)cc2)n1C(C)C,IC50,"curve of first compound, second compound 0.1 µM",104 nM
same,IC50,"curve of first compound, second compound 0.316 µM",96.5 nM
same,IC50,"curve of first compound, second compound 1 µM",79.2 nM
same,IC50,"curve of first compound, second compound 3.16 µM",86.4 nM
same,IC50,"curve of first compound, second compound 10 µM",168 nM
same,"viability, T/C","second compound 0.1 µM, first compound 0.00316 µM",81.3%
same,"viability, T/C","second compound 0.1 µM, first compound 0.01 µM",91.2%
same,"viability, T/C","second compound 0.1 µM, first compound 0.0316 µM",80.3%
same,"viability, T/C","second compound 0.1 µM, first compound 0.1 µM",46.8%
same,"viability, T/C","second compound 0.1 µM, first compound 0.316 µM",24.6%
same,"viability, T/C","second compound 0.1 µM, first compound 1 µM",5.06%
same,"viability, T/C","second compound 0.316 µM, first compound 0.00316 µM",91.3%
same,"viability, T/C","second compound 0.316 µM, first compound 0.01 µM",84.4%
same,"viability, T/C","second compound 0.316 µM, first compound 0.0316 µM",77.2%
same,"viability, T/C","second compound 0.316 µM, first compound 0.1 µM",48.7%
same,"viability, T/C","second compound 0.316 µM, first compound 0.316 µM",18.9%
same,"viability, T/C","second compound 0.316 µM, first compound 1 µM",4.02%
same,"viability, T/C","second compound 1 µM, first compound 0.00316 µM",91.1%
same,"viability, T/C","second compound 1 µM, first compound 0.01 µM",83.6%
same,"viability, T/C","second compound 1 µM, first compound 0.0316 µM",63.9%
same,"viability, T/C","second compound 1 µM, first compound 0.1 µM",48.7%
same,"viability, T/C","second compound 1 µM, first compound 0.316 µM",20.8%
same,"viability, T/C","second compound 1 µM, first compound 1 µM",3.26%
same,"viability, T/C","second compound 3.16 µM, first compound 0.00316 µM",91.5%
same,"viability, T/C","second compound 3.16 µM, first compound 0.01 µM",79.2%
same,"viability, T/C","second compound 3.16 µM, first compound 0.0316 µM",72.2%
same,"viability, T/C","second compound 3.16 µM, first compound 0.1 µM",48.9%
same,"viability, T/C","second compound 3.16 µM, first compound 0.316 µM",16.1%
same,"viability, T/C","second compound 3.16 µM, first compound 1 µM",2.71%
same,"viability, T/C","second compound 10 µM, first compound 0.00316 µM",166%
same,"viability, T/C","second compound 10 µM, first compound 0.01 µM",169%
same,"viability, T/C","second compound 10 µM, first compound 0.0316 µM",151%
same,"viability, T/C","second compound 10 µM, first compound 0.1 µM",73%
same,"viability, T/C","second compound 10 µM, first compound 0.316 µM",24%
same,"viability, T/C","second compound 10 µM, first compound 1 µM",4.08%
C=C(F)C(=O)N1CCN(c2nc(OCC3CCCN3C)nc3c2CCN(c2cccc4cccc(Cl)c24)C3)CC1CC#N (stereo unspecified),"viability, T/C",compound 0.0316 µM,68.8% and 82.4% and 85%
same,"viability, T/C",compound 0.1 µM,61.8% and 69.6% and 74.7%
same,"viability, T/C",compound 0.316 µM,56.1% and 67.6% and 66%
same,"viability, T/C",compound 1 µM,48.2% and 59.2% and 62.2%
same,"viability, T/C",compound 3.16 µM,19.4% and 14.3% and 24.8%
same,"viability, T/C",compound 10 µM,0.22% and 0.23% and 0.25%
same,IC50,curve of compound,654 nM and 1240 nM and 1270 nM
CNC(C)C(=O)NC1CN(S(=O)(=O)c2cccc(S(=O)(=O)N3CCC4CCC(C(=O)NC(c5ccccc5)c5ccccc5)N4C(=O)C(NC(=O)C(C)NC)C3)c2)CCC2CCC(C(=O)NC(c3ccccc3)c3ccccc3)N2C1=O (stereo unspecified),"viability, T/C",compound 0.00316 µM,95.8% and 104%
same,"viability, T/C",compound 0.01 µM,96.8% [middle of 15 runs]
same,"viability, T/C",compound 0.0316 µM,98.1% [middle of 15 runs]
same,"viability, T/C",compound 0.1 µM,99.2% [middle of 15 runs]
same,"viability, T/C",compound 0.316 µM,99.9% [middle of 15 runs]
same,"viability, T/C",compound 1 µM,96.2% [middle of 15 runs]
same,IC50,"compound alone, run of 10/03/2022",> 1000 nM
same,IC50,curve of compound,> 1000 nM
Cc1c(S(C)(=O)=O)c(-c2cc(F)cc(N3CCN(c4ccc(NS(=O)(=O)c5ccc(NC(CCN6CCC(C(=O)OCCCP(=O)(O)O)CC6)CSc6ccccc6)c(S(=O)(=O)C(F)(F)F)c5)cc4)CC3)c2)c(-c2ccc(Cl)cc2)n1C(C)C (stereo unspecified),"viability, T/C",compound 0.1 µM,94.6% [middle of 14 runs]
same,"viability, T/C",compound 0.316 µM,96.1% [middle of 14 runs]
same,"viability, T/C",compound 1 µM,94.4% [middle of 14 runs]
same,"viability, T/C",compound 3.16 µM,90.3% [middle of 14 runs]
same,"viability, T/C",compound 10 µM,166% [middle of 14 runs]
same,IC50,"compound alone, run of 09/27/2022",> 10000 nM
